Assay results published in PubChem BioAssay AID1963871 (Molecular Pharmacology Branch, DTP, NCI, 2024).
“And” between values parts separate entries of the source, which are not always exact repeats. Equal values may be shown once.

Test system: KRAS-mutant PDC multicell tumor spheroid viability
Test: Anticancer human tumor 521955-158-R2-J5-PDC patient-derived pancreatic carcinoma cell line growth inhibition [KRAS2]
Details: for viability, T/C: stronger effect = lower value
Source text: Multicellular complex tumor spheroid response to RAS pathway inhibitors in combination with a targeted agents in patient-derived cell lines with oncogenic KRAS variants from multiple cancer types
A high-throughput screen of multi-cell type tumor spheroids was designed to identify active combinations of targeted small molecules and KRAS pathway inhibitors. Complex spheroids include a stromal component modeled by human endothelial cells (HUVEC) and fibroblasts modeled by human mesenchymal stem cells (MSCs). The concentration ranges selected for each drug and investigational agent were based upon clinically achievable concentrations if the clinical Cmax of the agent was known.
Compounds. The drugs and investigational agents: BI-3406 (NSC825286), BAY-293 (NSC824723), batoprotafib (TNO155; NSC825523), sotorasib (AMG 510; NSC818433), MRTX1257 (NSC819558), elimusertib (BAY 1895344; NSC800525), molibresib (GSK525762; NSC774829), temuterkib (LY3214996; NSC803410), venetoclax (NSC766270), alisertib (NSC759677), olaparib (NSC753686), talazoparib (NSC767125), erdafitinib (NSC781556), ipatasertib (NSC767898), cabozantinib (NSC761068), nintedanib (NSC756659), abemaciclib (NSC768073), docetaxel (NSC628503), trametinib (NSC758246), and sapanisertib (NSC764658) were obtained from the National Cancer Institute (NCI) Developmental Therapeutics Program Chemical Repository. The FDA-approved anticancer drug set is available from the Developmental Therapeutics Program. […] The stock solutions were prepared in dimethyl sulfoxide (DMSO, Sigma-Aldrich, St. Louis, MO, cat. D2650) at 800-fold the tested concentration and stored at -70 degrees C prior to their use. All drugs and investigational agents were tested over a range starting from a high concentration at or near the clinical Cmax and decreasing in half-log increments. If the clinical Cmax for an agent had not been determined, the highest concentration tested was 10 microM.
Cell Culture. All cells were maintained in an incubator at 37 degrees C and 5% CO2 with 95% humidity. The PDC lines were cultured according to standard operating procedures established by the NCI PDMR (https://pdmr.cancer.gov/sops/default.htm). Briefly, all PDCs were thawed and cultured in Matrigel-coated flasks prepared with a working solution of 1X Ham's F-12 nutrient mix, without supplementation (Invitrogen, Waltham, MA, cat. 11765054), 100 U/mL penicillin-streptomycin (Invitrogen, cat. 15140122), and 2.5% Matrigel (Corning Inc., Corning, NY, cat. 354248) for the first three passages. All PDCs were cultured in complete DMEM/F-12 media containing advanced DMEM/F-12 (Invitrogen, cat. 12634028), 4.9% defined fetal bovine serum, heat inactivated (HyClone Laboratories Inc., Logan, UT, cat. SH30070.03HI), 389 ng/mL hydrocortisone (Sigma-Aldrich, cat. H4001), 9.7 ng/mL human EGF recombinant protein (Invitrogen, cat. PHG0313), 23.4 microg/mL adenine (Sigma-Aldrich, cat. A2786), 97.3 U/mL penicillin-streptomycin (Invitrogen, cat. 15140122), 1.9 mM L-glutamine (Invitrogen, cat. 25030081), and 9.7 microM Y-27632 dihydrochloride (Tocris Bioscience, Bristol, United Kingdom, cat. 1254). The PDCs were cultured in complete DMEM/F12 media without 9.7 microM Y-27632 dihydrochloride for at least two passages prior to the screen. The established cell line HOP-62 was cultured in RPMI 1640 medium, HEPES (Invitrogen, cat. 22400105) with 10% defined fetal bovine serum (HyClone Laboratories Inc., cat. SH30070.03) and 2 mM L-glutamine (Invitrogen, cat. 25030081). The pooled donor HUVEC were cultured in endothelial cell growth medium 2 (PromoCell, Heidelberg, Germany, cat. C-22011) and the hMSC were cultured in mesenchymal stem cell growth medium 2 (PromoCell, cat. C-28009). For all experiments, HUVEC and hMSC were used at passages </=5, while the malignant cell lines were used at passages </=15. […]

[1] = compound alone, run of 09/02/2021
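Note: viability read after seven days of drug exposure.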

With `C=CC(=O)N1CCN(c2nc(=O)n(-c3c(C)ccnc3C(C)C)c3nc(-c4c(O)cccc4F)c(F)cc23)C(C)C1` (centres undefined) the viability, T/C (compound 0.1 µM) was 105% [middle of 17 runs], the viability, T/C (compound 10 µM) was 66.7% [middle of 17 runs] and the IC50 (compound alone, run of 08/19/2021) was greater than 10 µM. It also gave an IC50 (compound alone, run of 08/26/2021) greater than 10 µM and an IC50 [1] greater than 10 µM.

For `CC(=O)Nc1cccc(-n2c(=O)n(C3CC3)c(=O)c3c(Nc4ccc(I)cc4F)n(C)c(=O)c(C)c32)c1`, the viability, T/C (compound 0.0001 µM) was 77.7% [middle of 5 runs], the viability, T/C (compound 0.000316 µM) was 47.2% [middle of 5 runs] and the viability, T/C (compound 0.001 µM) was 36.5% [middle of 5 runs]. For the same compound, the viability, T/C (compound 0.00316 µM) was 29.1% [middle of 5 runs], the viability, T/C (compound 0.01 µM) was 24.1% [middle of 5 runs] and the viability, T/C (compound 0.0316 µM) was 17.4% [middle of 4 runs]. For the same compound, the IC50 (curve of compound) was 0.337 nM [middle of 5 runs].

For `CC(=O)OC12COC1CC(O)C1(C)C(=O)C(O)C3=C(C)C(OC(=O)C(O)C(NC(=O)OC(C)(C)C)c4ccccc4)CC(O)(C(OC(=O)c4ccccc4)C21)C3(C)C` (centres undefined), the viability, T/C (compound 0.01 µM) was 22.3% [middle of 5 runs], the viability, T/C (compound 0.0316 µM) was 15.3% [middle of 5 runs] and the viability, T/C (compound 0.1 µM) was 14.2% [middle of 5 runs]. The viability, T/C (compound 0.316 µM) was 15.2% [middle of 5 runs], the viability, T/C (compound 1 µM) was 18.1% [middle of 5 runs] and the viability, T/C (compound 3.16 µM) was 21.9% [middle of 5 runs]. It also gave an IC50 (curve of compound) of less than 0.01 µM.

`CC(C)NCC(C(=O)N1CCN(c2ncnc3c2C(C)CC3O)CC1)c1ccc(Cl)cc1` (centres undefined) was tested, and the viability, T/C (compound 0.0316 µM) was 100% [middle of 5 runs], the viability, T/C (compound 0.1 µM) was 102% [middle of 5 runs] and the viability, T/C (compound 0.316 µM) was 83.8% [middle of 5 runs]. For the same compound, the viability, T/C (compound 1 µM) was 80.8% [middle of 5 runs], the viability, T/C (compound 3.16 µM) was 84.4% [middle of 5 runs] and the viability, T/C (compound 10 µM) was 66.7% [middle of 5 runs]. For the same compound, the IC50 (curve of compound) was greater than 10 µM.

For `CC(C)n1nc(-c2ccc3oc(N)nc3c2)c2c(N)ncnc21`, the viability, T/C (compound 0.000316 µM) was 101% [middle of 5 runs], the viability, T/C (compound 0.001 µM) was 87.6% [middle of 5 runs] and the viability, T/C (compound 0.00316 µM) was 66.9% [middle of 5 runs]. For the same compound, the viability, T/C (compound 0.01 µM) was 48.9% [middle of 5 runs], the viability, T/C (compound 0.0316 µM) was 35.8% [middle of 5 runs] and the viability, T/C (compound 0.1 µM) was 25.9% [middle of 5 runs]. For the same compound, the IC50 (curve of compound) was 9.42 nM [middle of 5 runs].

`CC1(C)CCC(CN2CCN(c3ccc(C(=O)NS(=O)(=O)c4ccc(NCC5CCOCC5)c([N+](=O)[O-])c4)c(Oc4cnc5[nH]ccc5c4)c3)CC2)=C(c2ccc(Cl)cc2)C1` was tested, and the viability, T/C (compound 0.0316 µM) was 99.7% [middle of 5 runs], the viability, T/C (compound 0.1 µM) was 104% [middle of 5 runs] and the viability, T/C (compound 0.316 µM) was 105% [middle of 5 runs]. For the same compound, the viability, T/C (compound 1 µM) was 111% [middle of 5 runs] and the IC50 (curve of compound) was 6.08 µM [middle of 5 runs].

`CC1COCCN1c1cc(-c2ccnn2C)c2ccnc(-c3ccn[nH]3)c2n1` (centres undefined) was tested, and the viability, T/C (compound 0.01 µM) was 97.7% [middle of 5 runs], the viability, T/C (compound 0.1 µM) was 12.3% [middle of 5 runs] and the viability, T/C (compound 0.316 µM) was 13.6% [middle of 5 runs]. The viability, T/C (compound 1 µM) was 21.9% [middle of 5 runs], the viability, T/C (compound 3.16 µM) was 25.1% [middle of 5 runs] and the IC50 (curve of compound) was 34.4 nM [middle of 5 runs].

With `CC1OCC2(CCN(c3cnc(Sc4ccnc(N)c4Cl)c(N)n3)CC2)C1N` (centres undefined) the viability, T/C (compound 0.0316 µM) was 84.3% and 94% and 83.1%, the IC50 [1] was > 10 µM and 4.03 µM and the IC50 (curve of compound) was greater than 10 µM.

For `CCN1CCN(Cc2ccc(Nc3ncc(F)c(-c4cc(F)c5nc(C)n(C(C)C)c5c4)n3)nc2)CC1`, the viability, T/C (compound 0.00316 µM) was 99% [middle of 5 runs], the viability, T/C (compound 0.01 µM) was 98.1% [middle of 5 runs] and the viability, T/C (compound 0.0316 µM) was 87.7% [middle of 5 runs]. The viability, T/C (compound 0.1 µM) was 90.7% [middle of 5 runs], the viability, T/C (compound 0.316 µM) was 99.1% [middle of 5 runs] and the viability, T/C (compound 1 µM) was 87.5% [middle of 5 runs]. It also gave an IC50 (curve of compound) greater than 1 µM.
